Test results: patent US9980943B2, “Methods of treating muscular dystrophy” (BOARD OF REGENTS OF THE NEVADA SYSTEM OF HIGHER EDUCATION, …, priority 2013, dated 2018)

Columns and labels:
Format in all cases: cell-based, mouse
[1] = tested on: β-galactosidase in CMV-LacZ C2C12 myotubes; test: CMV-LacZ secondary screen in C2C12 myotubes (β-Gal stabilizing assay); details: for CMV-LACZ in Myotubes, signal relative to DMSO: C2C12 CMV-LacZ myotubes, fold relative to DMSO; for CMV-LACZ in Myotubes (β-galactosidase activity relative to DMSO): CMV-LacZ C2C12 myotubes, 96-well format
Method in brief: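 β-gal stabilization was measured in C2C12 myoblasts or myotubes stably transfected with a CMV-driven LacZ construct, using the FDG β-gal assay. Compounds were tested in dose-response at 0.5, 1, 5, 10, 20 and 40 μM, with two replicates per point.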

[2] = tested on: α7 integrin (LacZ reporter in α7βgal+/− myoblasts); test: Myoblast α7+/LacZ integrin FDG assay (Burkin assay in myoblasts, 96-well); details: α7+/LacZ myoblasts, 96-well
[3] = tested on: α7 integrin (LacZ reporter in α7+/LacZ myotubes); test: Myotube α7 integrin FDG assay (Burkin assay in myotubes, 96-well); details: myotubes

SMILES | CMV-LACZ in Myotubes, signal relative to DMSO ([1]; 5 uM) | CMV-LACZ in Myotubes, signal relative to DMSO ([1]; 10 uM) | CMV-LACZ in Myotubes, signal relative to DMSO ([1]; 20 uM) | CMV-LACZ in Myotubes, signal relative to DMSO ([1]; 40 uM) | Burkin Assay in Myoblasts, value relative to DMSO ([2]; 0.5 uM) | Burkin Assay in Myoblasts, value relative to DMSO ([2]; 1 uM) | Burkin Assay in Myoblasts, value relative to DMSO ([2]; 5 uM) | Burkin Assay in Myoblasts, value relative to DMSO ([2]; 10 uM) | Burkin Assay in Myoblasts, value relative to DMSO ([2]; 20 uM) | Burkin Assay in Myoblasts, value relative to DMSO ([2]; 40 uM) | Burkin Assay in Myotubes (signal relative to DMSO) ([3]; 0.5 uM) | Burkin Assay in Myotubes (signal relative to DMSO) ([3]; 1 uM) | Burkin Assay in Myotubes (signal relative to DMSO) ([3]; 5 uM) | Burkin Assay in Myotubes (signal relative to DMSO) ([3]; 10 uM) | Burkin Assay in Myotubes (signal relative to DMSO) ([3]; 20 uM) | Burkin Assay in Myotubes (signal relative to DMSO) ([3]; 40 uM) | CMV-LACZ in Myotubes (β-galactosidase activity relative to DMSO) ([1]; 5 uM) | CMV-LACZ in Myotubes (β-galactosidase activity relative to DMSO) ([1]; 10 uM) | CMV-LACZ in Myotubes (β-galactosidase activity relative to DMSO) ([1]; 20 uM) | CMV-LACZ in Myotubes (β-galactosidase activity relative to DMSO) ([1]; 40 uM)
CC(Oc1ccccc1)C(=O)N1CCN(C(=O)C(C)Oc2ccccc2)CC1 (stereo not drawn) [MLS001162337-01] | 0.9904 | 0.9593 | 0.8491 | 1.05 | 1.123 | 1.127 | 1.091 | 1.071 | 0.8789 | 0.8149 | 0.6986 | 0.885 | 1.009 | 0.9738 | 1.17 | 1.014 |  |  |  | 
c1ccc(-c2cnc(-c3ccccc3)nc2)cc1 [MLS000532078-01] | 0.791 | 0.8914 | 0.9443 | 0.8623 | 1.091 | 1.076 | 0.944 | 0.9431 | 1.09 | 1.077 | 1.0727 | 1.078 | 1.239 | 1.114 | 1.078 | 1.043 |  |  |  | 
C[C@H](NS(=O)(=O)c1ccc(Cl)cc1)C(=O)OCC(=O)c1ccc[nH]1 [MLS000761297-01] |  |  |  |  | 1.0693 | 1.071 | 1.121 | 1.055 | 1.072 | 0.9526 | 1.0906 | 1.022 | 1.154 | 1.033 | 1.045 | 1.093 | 0.9911 | 0.8106 | 0.993 | 0.8829
